Measurements reported in patent US8920814B2, “Bacterial endotoxin for the prevention of metabolic disorders and bacterial infections” (The Governors of the University of Alberta, priority 2007, dated 2014).

How the values were obtained:
colon tissue = assay: Ussing chamber permeability of colon tissue to 3H-mannitol and LPS; format: cell-based, feedlot steers; settings: for increase of permeability of colon tissue to 3H-mannitol: acidic pH 5.5 and presence of LPS (500 μg/mL), Ussing chamber
Source text: FIG. 6 is a graph depicting permeability of colon tissue (obtained from killed feedlot steers) to ^3H-labeled mannitol under different pH values and in the presence (▪) or absence (□) of lipopolysaccharide (LPS) from E. coli B:055 in an Ussing chamber.
FIG. 8 is a graph depicting translocation of LPS across colon tissue (obtained from killed feedlot steers) under different pH values and in the presence (▪) or absence (□) of lipopolysaccharide (LPS) from E. coli B:055 in an Ussing chamber.
(§1) Accordingly, we investigated whether common rumen fluid and colon concentrations of lipopolysaccharide (LPS) would affect the permeability of rumen and colon tissues to mannitol and LPS in Ussing chambers. In addition, this study was designed to answer the question whether acidic conditions similar to those found in the rumen fluid and colon during conditions of sub-acute and acute acidosis would affect the permeability of rumen and colon tissues to mannitol and LPS.
(§2) Mannitol is a monosaccharide with a molecular weight of 182 daltons and normally is not metabolized by mammalian tissues. Mannitol normally goes through mucosal tissues in small amounts and has been used to evaluate the integrity of mucosal barriers. […] Both acidic pH and presence of LPS disrupts mucosal membranes and make them leaky to bacteria and toxic compounds like endotoxin.
(§3) This means that LPS went through the mucosal membranes (rumen and colon tissues) independently of the pH value.

rumen tissue = assay: Ussing chamber permeability of rumen tissue to 3H-mannitol and LPS; format: cell-based, feedlot steers; settings: for increase of permeability of rumen tissue to 3H-mannitol: acidic pH 4.5 and presence of LPS (500 μg/mL), Ussing chamber
Source text: FIG. 5 is a graph depicting permeability of rumen tissue (obtained from killed feedlot steers) to ^3H-labeled mannitol under different pH values and in the presence (▪) or absence (□) of lipopolysaccharide (LPS) from E. coli B:055 in an Ussing chamber.
FIG. 7 is a graph depicting translocation of LPS across rumen tissue (obtained from killed feedlot steers) under different pH values and in the presence (▪) or absence (□) of lipopolysaccharide (LPS) from E. coli B:055 in an Ussing chamber.
as §1, §2, §3

transition dairy cows [1] = assay: Clinical responses, dry matter intake and milk yield of transition cows given LPS; format: in vivo, Holstein cows; settings: oral; whole experimental period
Source text: We then investigated how transition cows respond clinically to repeated oral and intravenous exposure to an E. coli antigen (E. coli lipopolysaccharide—(“LPS”)) during the 2 weeks before and 1 week after calving, and to determine the effects of repeated oral or intravenous administration of E. coli LPS on eating behaviour and milk yield during the transition period.
During their final 3 wk prepartum, 32 multiparous Holstein cows were housed in a tie-stall barn with wood shavings for bedding, the number at any given time varied depending on the number of cows at that stage of gestation. Cows were blocked based on their parity, previous milk production as well as their expected day of calving and randomly assigned to one of the four treatment groups (8 cows/group) in a randomized blocked design 2 wk before the expected day of calving until 4 wk postpartum. […]
Diets were mixed and offered as TMR individually once a day at 0600 h. Orts were recorded and discarded before the next feeding each day and the amount of feed was adjusted to ensure a 10% feed residual. Cows were milked twice a day at 0400 and 1500 h, and milk yield was recorded electronically every day for the first 28 days of lactation. All clinical disease and medication were recorded daily during the whole experimental period. […]

transition dairy cows [2] = assay: Plasma metabolites, minerals and acute phase proteins of transition cows given LPS; format: in vivo, Holstein cows; settings: oral
Source text: (§4) During their final 3 wk prepartum, 32 multiparous Holstein cows were housed in a tie-stall barn with wood shavings for bedding, the number at any given time varied depending on the number of cows at that stage of gestation. Cows were blocked based on their parity, previous milk production as well as their expected day of calving and randomly assigned to one of the four treatment groups (8 cows/group) in a randomized blocked design 2 wk before the expected day of calving until 4 wk postpartum. Cows were offered dry-period and early-lactation diets, formulated according to NRC recommendation (2001) for transition dairy cows.
(§5) The four groups of cows were administered on d 14, 11, 7, and 4 before the expected day of parturition as well as on d 1 and 3 after parturition, one of the following treatments: (1) oral delivery of 2 mL of saline (0.15 M NaCl), (2) oral delivery of 2 mL of saline containing lipopolysaccharide (LPS) from Escherichia coli 0111:B4 (Sigma, St. Louis, Mo.), (3) intravenous delivery of 100 mL of saline (0.15 M NaCl), or (4) intravenous delivery of 100 mL of saline containing LPS from E. coli 0111:B4. A 5 mL syringe was used for administration of treatment into the oral cavity. The amount of LPS given to cows orally or intravenously (iv) was as follows: (1) on d 14 and 11 before the expected day of parturition 0.01 μg/kg of BW dissolved in 2 mL (oral) or 100 mL (iv) of saline, (2) on d 7 and 4 before the expected day of parturition 0.05 μg/kg of BW dissolved in 2 mL (oral) or 100 mL (iv) of saline, and (3) on d 1 and 3 after parturition 0.1 μg/kg of BW dissolved in 2 mL (oral) or 100 mL (iv) of saline. Cows were given one flat dose of LPS based on the 650 kg average body weight of cows at Dairy Research and Technology Transfer. Rectal temperature, respiration rate, and rumen contraction was measured from all cows 15 min before as well as 60, 120, 180, 240, 300, and 360 min after administration of treatment.
A catheter was introduced into the jugular vein 1 h before the administration of treatment to all cows in the experiment. Blood samples were obtained from the jugular catheter 15 min before as well as at 15, 30, 60, 120, 180, 240, 300, and 360 min after administration of treatment on d 14, 11, 7, and 4 before the expected day of parturition as well as on d 1 and 3 after parturition. Also, 1 single blood sample was obtained during d 10, 17, and 24 after parturition.
(§6) Blood was collected into 10-ml Vacutainer tubes (Beckton Dickinson and Co., Rutherford, N.J.) containing K3-EDTA, and plasma was prepared by centrifugation within 20 min. Plasma samples were stored at −20° C. until analyzed for concentrations of serum amyloid A (SAA), lipopolysaccharide-binding protein (LBP), haptoglobin, C-reactive protein (CRP), glucose, insulin, non-esterified fatty acids (NEFA), beta-hydroxybutyric acid (BHBA), lactate, cholesterol, cortisol, calcium, copper, iron, zinc as well as anti-LPS immunoglobulin A, G, and M.

transition dairy cows [3] = assay: Clinical incidence of postpartal metabolic disorders after oral vaccination of transition cows; format: in vivo, Holstein cows; settings: for reduction of the incidence of metabolic disorders: vs oral saline
Source text: as §4
Diets were mixed and offered as TMR individually once a day at 0600 h. Orts were recorded and discarded before the next feeding each day and the amount of feed was adjusted to ensure a 10% feed residual. Cows were milked twice a day at 0400 and 1500 h, and milk yield was recorded electronically every day for the first 28 days of lactation. All clinical disease and medication were recorded daily during the whole experimental period. The experiment was conducted at the University of Alberta Dairy Research and Technology Center, Edmonton, Canada. All cows were managed and treated in accordance with the guidelines established by the Canadian Council on Animal Care (1993) and all animal-related procedures were approved by the University of Alberta Faculty Animal Policy and Welfare Committee.
as §5

transition dairy cows [4] = assay: Plasma anti-LPS immunoglobulins A, G and M of transition cows given oral LPS; format: in vivo, Holstein cows; settings: around parturition
Source text: as §4
The four groups of cows were administered on d 14, 11, 7, and 4 before the expected day of parturition as well as on d 1 and 3 after parturition, one of the following treatments: (1) oral delivery of 2 mL of saline (0.15 M NaCl), (2) oral delivery of 2 mL of saline containing lipopolysaccharide (LPS) from Escherichia coli 0111:B4 (Sigma, St. Louis, Mo.), (3) intravenous delivery of 100 mL of saline (0.15 M NaCl), or (4) intravenous delivery of 100 mL of saline containing LPS from E. coli 0111:B4. A 5 mL syringe was used for administration of treatment into the oral cavity. […] Rectal temperature, respiration rate, and rumen contraction was measured from all cows 15 min before as well as 60, 120, 180, 240, 300, and 360 min after administration of treatment. […]
as §6

[5] = listed as lipopolysaccharide (LPS) from Escherichia coli 0:B55
[6] = during 6 h after administration, first week after parturition

## lipopolysaccharide (LPS) from E. coli B:055 [LPS from E. coli strain B:055]
Colon tissue
  increase of permeability of colon tissue to 3H-mannitol: increase several fold
Colon tissue; [5]
  increase of permeability of colon tissue to 3H-mannitol: 5 fold
Colon tissue; pH values between 5.5 and 7.4
  effect on permeability of colon tissue to mannitol: did not affect
Rumen tissue
  increase of permeability of rumen tissue to 3H-mannitol: increase several fold
Rumen tissue; [5]
  increase of permeability of rumen tissue to 3H-mannitol: 4 fold
Rumen tissue; pH values between 5.5 and 7.4
  effect on permeability of rumen tissue to mannitol: did not affect

## lipopolysaccharide (LPS) from Escherichia coli 0111:B4 [LPS from E. coli 0111:B4]
Transition dairy cows [1]
  dry matter intake vs control cows: no differences
Transition dairy cows [2]; 2 wk before and 1 wk after calving
  plasma glucose concentration vs control cows: did not change and were higher
Transition dairy cows [2]; around parturition
  plasma insulin vs control cows: higher
  plasma zinc: prevented the decline
Transition dairy cows [2]; before and after calving
  plasma copper: no changes
Transition dairy cows [2]; [6]
  plasma BHBA concentration vs control cows: lower
  plasma NEFA concentration vs control cows: lower
Transition dairy cows [2]; during the 6 h after treatment, last day of the vaccination
  plasma cholesterol concentration vs control cows: Higher
Transition dairy cows [2]; especially first 3 days after calving
  plasma lipopolysaccharide-binding protein (LBP) vs control cows: higher in control cows than in vaccinated ones
Transition dairy cows [2]; experimental period
  plasma serum amyloid A (SAA) vs control group: no significant differences
Transition dairy cows [2]; experimental period / first week after parturition
  plasma cholesterol concentration vs control cows: did not change between the two groups
Transition dairy cows [2]; first week after calving, before and after vaccination (FIG. 17)
  plasma glucose concentration vs control cows: higher
Transition dairy cows [3]; oral LPS group, one cow per block
  clinical record of individual cow: Normal—Calved day 1, Lameness day 44, Mastitis day 71
Transition dairy cows [3]; oral, after 30 d of parturition
  reduction of the incidence of metabolic disorders: 66%
Transition dairy cows [3]; oral, first 30 days after parturition
  cows affected by metabolic disorders: not affected by any metabolic disorders
Transition dairy cows [3]; oral, more than 30 days after parturition, one cow
  cows of the group affected (lameness and mastitis): 12%
Transition dairy cows [3]; oral, within the first 30 d after parturition
  reduction of the incidence of metabolic disorders: 100%
Transition dairy cows [4]
  increase of plasma concentration of anti-LPS immunoglobulin M (IgM): several fold
  plasma IgA antibodies against endotoxin vs control cows: lower in vaccinated cows compared with the control ones, although the difference did not reach significant level
  plasma anti-endotoxin IgG antibodies vs control cows: lower
